In US12624024B2, “EP2 antagonist compounds” (Reservoir Neuroscience, Inc., priority 2021, dated 2026):
pIC50: −log10 of the molar value.

Target: T1, EP2 receptor (Homo sapiens, UniProt P43116)
T1 construct: expressed in transfected cells; host or cells: CHO-K1 cells (ATCC), transient transfection with FuGENE 6
Experiment: EP2 Potency Assay (cAMP TR-FRET, CHO-K1 cells transfected with EP2 receptor, PGE2 at EC80)
Type: cell-based
Settings: CHO-K1 cells expressing EP2, prostaglandin E2 at EC80, read-out: EP2 Potency (IC50 category)
Experimental: Compound potency was measured using a cAMP TR-FRET assay.
After 6 hours incubation, the cell media was replaced with F12 medium supplemented with 10% FBS and 100 U/ml Pen-Strep. 24 hours after transfection, cells were harvested and seeded at a density of 3000 cells/well in a 384 well plate to perform the cAMP assay, using the LANCE Ultra cAMP assay kit (PerkinElmer).
Plates were then centrifuged at 1000 rpm for 1 min, agitated at 600 rpm at R.T. for 2 min, and incubated at 25° C. for 5 min. The reference agonist, prostaglandin E2 (MCE), was added to each well at the appropriate concentration to reach its EC80 value. Plates were then centrifuged at 1000 rpm for 1 min, agitated at 600 rpm at R.T. for 2 min, and incubated at 25° C. for 30 min.
A dose-response curve was prepared by plotting percent inhibition for each compound concentration, and then IC50 was calculated by fitting a curve to the plotted values and extrapolating the IC50 concentration.

T1 sequence (P43116 whole entry): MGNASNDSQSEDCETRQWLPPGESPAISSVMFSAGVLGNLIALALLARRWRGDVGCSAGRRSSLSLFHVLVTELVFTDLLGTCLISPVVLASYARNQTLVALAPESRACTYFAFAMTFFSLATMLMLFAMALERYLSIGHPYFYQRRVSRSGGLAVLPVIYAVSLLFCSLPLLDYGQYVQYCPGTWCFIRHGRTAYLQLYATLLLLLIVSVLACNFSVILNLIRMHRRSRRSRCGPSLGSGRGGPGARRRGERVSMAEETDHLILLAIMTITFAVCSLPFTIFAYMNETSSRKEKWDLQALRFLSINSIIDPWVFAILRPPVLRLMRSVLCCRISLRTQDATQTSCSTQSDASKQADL

Row | pIC50 | Compound
1 | 5.30 to 6.00 | O=c1ncc(CN2CCOc3c(Cl)cc(-c4cccc5nccn45)cc3C2)c[nH]1 [Compound 74]
2 | 6.00 to 6.30 | O=c1ncc(CN2CCOc3c(Cl)cc(-c4ncc5ccccn45)cc3C2)c[nH]1 [Compound 75]
3 | < 5.30 | O=c1ncc(CN2CCOc3c(Cl)cc(-n4ccc5nccnc54)cc3C2)c[nH]1 [Compound 76, 5-[(9-chloro-7-{pyrrolo[2,3-b]pyrazin-5-yl}-3,5-dihydro-2H-1,4-benzoxazepin-4-yl)methyl]-1H-pyrimidin-2-one trifluoroacetic acid]
4 | < 5.30 | O=c1ncc(CN2CCOc3c(Cl)cc(-n4ccc5cncnc54)cc3C2)c[nH]1 [Compound 77]
5 | 6.30 to 7.00 | O=c1ncc(CN2CCOc3c(Cl)cc(N4CCc5cc(F)ccc54)cc3C2)c[nH]1 [Compound 78]
6 | 6.30 to 7.00 | O=c1ncc(CN2CCOc3c(Cl)cc(N4CCc5cc(Cl)ccc54)cc3C2)c[nH]1 [Compound 79]
7 | 5.30 to 6.00 | O=c1ncc(CN2CCOc3c(Cl)cc(N4CCCc5cc(F)ccc54)cc3C2)c[nH]1 [Compound 80]
8 | 5.30 to 6.00 | O=c1ncc(CN2CCOc3c(Cl)cc(N4CCOc5cc(F)ccc54)cc3C2)c[nH]1 [Compound 81]
9 | 5.30 to 6.00 | O=c1ncc(CN2CCOc3c(Cl)cc(-c4cccc5ccccc45)cc3C2)c[nH]1 [Compound 82]
10 | < 5.30 | O=c1ncc(CN2CCOc3c(Cl)cc(-c4cccc5c4CCCC5)cc3C2)c[nH]1 [Compound 83]
11 | 6.30 to 7.00 | O=c1ncc(CN2CCOc3c(Cl)cc(-c4coc5ccccc45)cc3C2)c[nH]1 [Compound 84]
12 | < 5.30 | O=c1ncc(CN2CCOc3c(Cl)cc(-c4cccc5c4OCCO5)cc3C2)c[nH]1 [Compound 85]
13 | < 5.30 | Fc1ccc2c(ccn2-c2cc(Cl)c3c(c2)CN(Cc2cc[nH]c2)CCO3)c1 [Compound 86]
14 | < 5.30 | Fc1ccc2c(ccn2-c2cc(Cl)c3c(c2)CN(Cc2ccc[nH]2)CCO3)c1 [Compound 87]
15 | < 5.30 | CC(C)(C)OC(=O)n1cccc1CN1CCOc2c(Cl)cc(-n3ccc4cc(F)ccc43)cc2C1 [Compound 88]
16 | < 5.30 | Fc1ccc2c(ccn2-c2cc(Cl)c3c(c2)CN(Cc2ccco2)CCO3)c1 [Compound 89]
17 | < 5.30 | Fc1ccc2c(ccn2-c2cc(Cl)c3c(c2)CN(Cc2ccoc2)CCO3)c1 [Compound 90]
18 | < 5.30 | Fc1ccc2c(ccn2-c2cc(Cl)c3c(c2)CN(Cc2cccs2)CCO3)c1 [Compound 91]
19 | < 5.30 | Fc1ccc2c(ccn2-c2cc(Cl)c3c(c2)CN(Cc2ccsc2)CCO3)c1 [Compound 92]

Row | pIC50 | Compound
20 | 6.00 to 6.30 | Fc1ccc2c(ccn2-c2cc(Cl)c3c(c2)CN(Cc2cnco2)CCO3)c1 [Compound 93, 9-chloro-7-(5-fluoro-1H-indol-1-yl)-4-(oxazol-5-ylmethyl)-2,3,4,5-tetrahydrobenzo[f][1,4]oxazepine]
21 | 5.30 to 6.00 | Fc1ccc2c(ccn2-c2cc(Cl)c3c(c2)CN(Cc2ccno2)CCO3)c1 [Compound 94]
22 | < 5.30 | Fc1ccc2c(ccn2-c2cc(Cl)c3c(c2)CN(Cc2cocn2)CCO3)c1 [Compound 95]
23 | 5.30 to 6.00 | Fc1ccc2c(ccn2-c2cc(Cl)c3c(c2)CN(Cc2cnsc2)CCO3)c1 [Compound 96]
24 | < 5.30 | Fc1ccc2c(ccn2-c2cc(Cl)c3c(c2)CN(Cc2ccsn2)CCO3)c1 [Compound 97]
25 | 6.00 to 6.30 | Fc1ccc2c(ccn2-c2cc(Cl)c3c(c2)CN(Cc2cncs2)CCO3)c1 [Compound 99]
26 | < 5.30 | Fc1ccc2c(ccn2-c2cc(Cl)c3c(c2)CN(Cc2cscn2)CCO3)c1 [Compound 100, 9-chloro-7-(5-fluoroindol-1-yl)-4-(1,3-thiazol-4-ylmethyl)-3,5-dihydro-2H-1,4-benzoxazepine]
27 | < 5.30 | Fc1ccc2c(ccn2-c2cc(Cl)c3c(c2)CN(Cc2cc[nH]n2)CCO3)c1 [Compound 101]
28 | < 5.30 | Cn1ccc(CN2CCOc3c(Cl)cc(-n4ccc5cc(F)ccc54)cc3C2)n1 [Compound 102]
29 | 5.30 to 6.00 | Fc1ccc2c(ccn2-c2cc(Cl)c3c(c2)CN(Cc2cn[nH]c2)CCO3)c1 [Compound 103, 4-((1H-pyrazol-4-yl)methyl)-9-chloro-7-(5-fluoro-1H-indol-1-yl)-2,3,4,5-tetrahydrobenzo[f][1,4]oxazepane]
30 | < 5.30 | CC(C)(C)OC(=O)n1cc(CN2CCOc3c(Cl)cc(-n4ccc5cc(F)ccc54)cc3C2)cn1 [Compound 104]
31 | < 5.30 | COc1n[nH]cc1CN1CCOc2c(Cl)cc(-n3ccc4cc(F)ccc43)cc2C1 [Compound 105, 9-chloro-7-(5-fluoroindol-1-yl)-4-[(3-methoxy-1H-pyrazol-4-yl)methyl]-3,5-dihydro-2H-1,4-benzoxazepine]
32 | < 5.30 | Fc1ccc2c(ccn2-c2cc(Cl)c3c(c2)CN(Cc2cnc[nH]2)CCO3)c1 [Compound 107]
33 | 5.30 to 6.00 | Fc1ccc2c(ccn2-c2cc(Cl)c3c(c2)CN(Cc2cn[nH]n2)CCO3)c1 [Compound 108, 9-chloro-7-(5-fluoroindol-1-yl)-4-(2H-1,2,3-triazol-4-ylmethyl)-3,5-dihydro-2H-1,4-benzoxazepine]
34 | < 5.30 | Fc1ccc2c(ccn2-c2cc(Cl)c3c(c2)CN(Cc2nnc[nH]2)CCO3)c1 [Compound 109, 9-chloro-7-(5-fluoroindol-1-yl)-4-(4H-1,2,4-triazol-3-ylmethyl)-3,5-dihydro-2H-1,4-benzoxazepine]
35 | < 5.30 | Fc1ccc2c(ccn2-c2cc(Cl)c3c(c2)CN(Cc2ncon2)CCO3)c1 [Compound 110]
36 | 5.30 to 6.00 | Fc1ccc2c(ccn2-c2cc(Cl)c3c(c2)CN(Cc2nnco2)CCO3)c1 [Compound 111, 9-chloro-7-(5-fluoroindol-1-yl)-4-(1,3,4-oxadiazol-2-ylmethyl)-3,5-dihydro-2H-1,4-benzoxazepine]
37 | 5.30 to 6.00 | Fc1ccc2c(ccn2-c2cc(Cl)c3c(c2)CN(Cc2nncs2)CCO3)c1 [Compound 112]
38 | 5.30 to 6.00 | Fc1ccc2c(ccn2-c2cc(Cl)c3c(c2)CN(Cc2cnsn2)CCO3)c1 [Compound 113]

Row | pIC50 | Compound
39 | < 5.30 | Fc1ccc2c(ccn2-c2cc(Cl)c3c(c2)CN(Cc2nsc(Cl)n2)CCO3)c1 [Compound 115, 9-chloro-4-[(5-chloro-1,2,4-thiadiazol-3-yl)methyl]-7-(5-fluoroindol-1-yl)-3,5-dihydro-2H-1,4-benzoxazepine]
40 | < 5.30 | Nc1nc(CN2CCOc3c(Cl)cc(-n4ccc5cc(F)ccc54)cc3C2)ns1 [Compound 117, 3-{[9-chloro-7-(5-fluoroindol-1-yl)-3,5-dihydro-2H-1,4-benzoxazepin-4-yl]methyl}-1,2,4-thiadiazol-5-amine]
41 | < 5.30 | Fc1ccc2c(ccn2-c2cc(Cl)c3c(c2)CN(Cc2nn[nH]n2)CCO3)c1 [Compound 118, 9-chloro-7-(5-fluoroindol-1-yl)-4-(2H-1,2,3,4-tetrazol-5-ylmethyl)-3,5-dihydro-2H-1,4-benzoxazepine]
42 | < 5.30 | Oc1ccccc1CN1CCOc2c(Cl)cc(-n3ccc4cc(F)ccc43)cc2C1 [Compound 119]
43 | < 5.30 | Oc1cccc(CN2CCOc3c(Cl)cc(-n4ccc5cc(F)ccc54)cc3C2)c1 [Compound 120]
44 | < 5.30 | Oc1ccc(CN2CCOc3c(Cl)cc(-n4ccc5cc(F)ccc54)cc3C2)cc1 [Compound 121]
45 | < 5.30 | Fc1ccc2c(ccn2-c2cc(Cl)c3c(c2)CN(Cc2ccccc2C(F)F)CCO3)c1 [Compound 122, 9-chloro-4-(2-(difluoromethyl)benzyl)-7-(5-fluoro-1H-indol-1-yl)-2,3,4,5-tetrahydrobenzo[f][1,4]oxazepane]
46 | < 5.30 | Fc1ccc2c(ccn2-c2cc(Cl)c3c(c2)CN(Cc2cccc(C(F)F)c2)CCO3)c1 [Compound 123]
47 | < 5.30 | Fc1ccc2c(ccn2-c2cc(Cl)c3c(c2)CN(Cc2ccc(C(F)F)cc2)CCO3)c1 [Compound 124]
48 | 5.30 to 6.00 | NC(=O)[C@H]1CC[C@@H](CN2CCOc3c(Cl)cc(-n4ccc5cc(F)ccc54)cc3C2)CC1 [Compound 125]
49 | 6.00 to 6.30 | NC(=O)[C@H]1CC[C@H](CN2CCOc3c(Cl)cc(-n4ccc5cc(F)ccc54)cc3C2)CC1 [Compound 126]
50 | 6.00 to 6.30 | CNC(=O)[C@H]1CC[C@H](CN2CCOc3c(Cl)cc(-n4ccc5cc(F)ccc54)cc3C2)CC1 [Compound 127, trans-4-{[9-chloro-7-(5-fluoroindol-1-yl)-3,5-dihydro-2H-1,4-benzoxazepin-4-yl]methyl}-N-methylcyclohexane-1-carboxamide]
51 | 5.30 to 6.00 | CNC(=O)[C@H]1CC[C@@H](CN2CCOc3c(Cl)cc(-n4ccc5cc(F)ccc54)cc3C2)CC1 [Compound 128, cis-4-{[9-chloro-7-(5-fluoroindol-1-yl)-3,5-dihydro-2H-1,4-benzoxazepin-4-yl]methyl}-N-methylcyclohexane-1-carboxamide]
52 | 5.30 to 6.00 | CN(C)C(=O)[C@H]1CC[C@@H](CN2CCOc3c(Cl)cc(-n4ccc5cc(F)ccc54)cc3C2)CC1 [Compound 129]
53 | 5.30 to 6.00 | CN(C)C(=O)[C@H]1CC[C@H](CN2CCOc3c(Cl)cc(-n4ccc5cc(F)ccc54)cc3C2)CC1 [Compound 130]
54 | 6.00 to 6.30 | O=C(O)[C@H]1CC[C@H](CN2CCOc3c(Cl)cc(-n4ccc5cc(F)ccc54)cc3C2)CC1 [Compound 131]
55 | 5.30 to 6.00 | O=C(O)[C@H]1CC[C@@H](CN2CCOc3c(Cl)cc(-n4ccc5cc(F)ccc54)cc3C2)CC1 [Compound 132, cis-4-{[9-chloro-7-(5-fluoroindol-1-yl)-3,5-dihydro-2H-1,4-benzoxazepin-4-yl]methyl}cyclohexane-1-carboxylic acid]
56 | < 5.30 | COC(=O)[C@H]1CC[C@H](CN2CCOc3c(Cl)cc(-n4ccc5cc(F)ccc54)cc3C2)CC1 [Compound 133]
